Source: patent publication US12240870B2, “Sequencing method for CAR T cell therapy” (Purdue Research Foundation, priority 2018, dated 2025)
“Also recorded” adds a separate entry of the source.

Test system: HOS-FRα xenografts
Assay: HOS-FRα osteosarcoma subcutaneous xenograft, E2 CAR-T cells plus EC17
Type: in vivo, NSG mice
From the text: Panel A: Schematic diagram to show dose scheduling of CAR-T cells (˜6 million, day 0) plus EC17 in NSG mice with 3-day-old subcutaneous HOS-FRα xenografts (n=5). Starting 3 days after CAR-T cell injection (6 days after tumor implant), 3 cycles of EC17 M/Th/M […], i.e. on days 3/6/10, 17/20/24, and 31/34/38. Panel B: Measurements of tumor volumes and change in body weights. Due to tumor progression, five mice received CAR-T cells only (no EC17) were euthanized on days 23-31, and five EC17 treated mice were euthanized on days 33 (2 mice) and 47 (3 mice), respectively. Panel C: Flow cytometric analysis of CAR-T cells (human CD3ε+EGFRT+) PER 100 μL OF WHOLE BLOOD PLOTTED ON A LOGARITHMIC SCALE (LEFT) AND TUMOR-infiltrating CAR-T cells at the time of euthanasia (right).
HOS-FRα (i.e. HOS-143b-LV-FRα) is a subclone of HOS-143B (ATCC CRL-8303) stably transfected with human FRα. HOS-143B was originally derived from a […] with osteosarcoma. The tumor cells were grown in folate-deficient RPMI 1640 with 5% FBS at 37° C. in a 5% CO2 humidified atmosphere. For the in-vivo study, tumor cells were inoculated subcutaneously at 1×10^6 cells per animal.
EGFRt-sorted anti-FITC E2 scFv-CAR T cells were frozen in a T-cell freezing medium. Upon arrival, vials of frozen CAR-T cells were immediately stored at −80° C. The CAR-T cells were quickly thawed at 37° C., washed twice with PBS, and used for animal injection at 6 million viable EGFRt+ E2 CAR-T cells (CD4/CD8 at ˜1:1) per animal. A small aliquot was taken on the day infusion for flow cytometric analysis of E2-CAR T-cell phenotypes.
EC17 dosing solutions were prepared when dosing began by weighing appropriate amounts of each compound, reconstituting in PBS, pH 7.4, sterile filtering the drug solution through a 0.22 μm PVDF syringe filter, and freezing aliquots for each day of dosing at −20° C.
All EC17 doses were given towards the end of day (3-4 PM) to allow potential CRS (cytokine release syndrome) to develop overnight. On the following morning, animals were scored according to a CRS grading system (see below).
Tumor growth, body weight, and overall assessment: Tumor sizes were monitored 2-3 times/week and body weight measured 2-3 times/week. On the days immediately after any EC17 dose, body weight measurement was taken daily and attention was given to gross animal morphology and behavior.
Euthanasia: Euthanasia was performed when mice had lost ≥20% of their weight, when tumors reached ≥1500 mm^3. Euthanasia was also performed if mice lost a lot of weight in a short duration (e.g., due to severe head-tilt), or when they approached moribund conditions per CRS grading system. • EC17 intra-host dose escalation treatment (3 cycles). See FIG. 16. • Antitumor activity (N=5)
All animal care and use were performed according to NIH guidelines and in compliance with protocols approved by the Purdue University Animal Use and Care Committee. Female 4 to 5-week-old NOD/SCID gamma (NSG™) mice (stock number: 005557) were purchased from The Jackson Laboratory (Bar Harbor, ME). Unless specifically indicated, all animals were maintained on a FA-deficient diet (TestDiet, St. Louis, MO) upon arrival and throughout the study. To establish subcutaneous xenografts, MDA-MB-231 and HOS-FRα were implanted in the right flank region at 2.5×10^6 and 1×10^6 cells per animal, respectively. […] Subcutaneous tumors were measured 2-3 times per week with a caliper and calculated using the ellipsoidal formula (length×width^2)/2. […]

Nc1nc2ncc(CNc3ccc(C(=O)N[C@@H](CCC(=O)NCCNC(=S)Nc4ccc(-c5c6ccc(=O)cc-6oc6cc(O)ccc56)c(C(=O)O)c4)C(=O)O)cc3)nc2c(=O)[nH]1 [EC17, FA-(γ)-ethylenediamine-FITC]
tumor volume (antitumor activity) (6 million E2 CAR-T cells + EC17 5/100/1000 nmol/kg, M/Th/M (Cohort 2, FIG. 4)): significant tumor regression | body weight loss or CRS (6 million E2 CAR-T cells + EC17 slow dose escalation M/Th/M (Cohort 2, FIG. 4)): without body weight loss or CRS; also recorded: No body weight loss or symptoms of cytokine release syndrome (CRS) were observed | day of euthanasia due to tumor progression (five EC17 treated mice, EC17 M/Th/M dose escalation): 33 (2 mice) and 47 (3 mice) days | CRS or body weight loss (~6 million E2-CAR-T cells + EC17 5/10/100, 5/30/300, 5/50/500 nmol/kg Cycles 1-3, M/Th/M (FIG. 14)): no CRS or body weight loss | tumor growth (~6 million E2-CAR-T cells + EC17 5/10/100, 5/30/300, 5/50/500 nmol/kg Cycles 1-3, M/Th/M, 6-day break (FIG. 14)): significant delay in tumor growth; also recorded: stopped responding to treatment in Cycle 3
